Experimental data: patent US20250017907A1, “METHOD FOR PREVENTING AND/OR TREATING LIVER FIBROSIS BY USING 6-METHOXYBENZOXAZOLINONE AND COIX LACHRYMA-JOBI L. EXTRACT COMPRISING 6-METHOXYBENZOXAZOLINONE” (Taichung District Agricultural Research and Extension …, priority 2023, published 2025)

Experiments:
[1] = system: PI3K and ERK signaling pathway; test: Western blot of PI3K and ERK signaling pathway; type: cell-based, rat; conditions: TGF-β1-activated HSC-T6 cells, CX
Procedure: The procedure of cell cultures is as follows. HSC-T6 cell is an immortalized cell line isolated from transformed SV40 large T-antigen transformed primary stellate cells of male Sprague-Dawley rats. HSC-T6 cells were maintained in Dulbecco's Modified Eagle Medium (DMEM, Sigma-Aldrich, USA) containing 8% fetal bovine serum (FBS, HyClone, USA), 100 U/mL of penicillin, and 100 μg/mL of streptomycin (Gibco, USA).
For hepatic stellate cell (HSC) activation, cells were cultured for 24 h and then replaced with serum-free medium for 24 h, after that, treated with transforming growth factor beta 1 (TGF-β1) (10 ng/mL) in the presence or absence of CX (10-100 μM) or adlay leaf, root, and seed extracts (25 and 50 μg/mL) for 24 h, or 30 min for intracellular signal pathways.
The procedure of Western blot analysis is as follows. Cells were lysed in RIPA buffer with protease inhibitor and then centrifuged at 4° C., 12000 rpm for 10 min. Collected the supernatant and quantified the total protein concentration to 50 μg. After heating at 95° C. for 10 min, the protein samples were separated by SDS-PAGE gel, transferred to PVDF membrane, followed by blocking with 6% milk, incubated with primary antibodies at 4° C., overnight and secondary antibodies at room temperature for 1 h. Blot images were visualized on Amersham Imager 680 (Cytiva, USA) with ECL agent (GeneDireX, USA).

[2] = system: TAA-induced liver fibrotic C57BL/6J mice; test: Hydroxyproline assay of liver tissue; type: in vivo; conditions: CX groups (20 and 50 mg/kg oral, 6 weeks); vs TAA group
Procedure: For tests of adlay extracts, mice were randomly divided into the following seven groups (n=6, per group): (1) No treatment group (NT, normal diet), (2) Thioacetamide group (TAA, 200 mg/kg, normal diet), (3) 10% adlay seed powder (ASP) group, (4) 1% adlay leaf powder (ALP) group, (5) 1% adlay seed polysaccharide (ASPS) group, (6) 0.025% adlay seed ethanolic extract (ASE) group and (7) 0.1% ASE group. NT group received pure saline, and other groups intraperitoneally injected with TAA dissolved into saline thrice a week.
For tests of CX, mice were randomly divided into the following four groups (n=8, per group): (1) NT group, (2) TAA group (200 mg/kg), (3) CX group (CX20, 20 mg/kg), and (4) CX group (CX50, 50 mg/kg). NT group received pure saline, and other groups intraperitoneally injected with TAA dissolved into saline thrice a week. Moreover, NT group and TAA group also received 5% propylene glycol, while CX groups received CX dissolved into 5% propylene glycol (prepared in 0.9% saline) by oral gavage once per day. […]
The procedure of hydroxyproline assay is as follows. The hydroxyproline, as an indirect index of the collagen content in the liver, was determined by a hydroxyproline assay kit and the testing procedures followed the manufacturer's protocol. […] The hydroxyproline content was measured at a wavelength of 558 nm on an ELISA reader (TECAN, Switzerland). […]

[3] = system: TGF-β1-activated HSC-T6 cells; test: Wound healing assay; type: cell-based, rat
Procedure: The procedure of wound healing assay is as follows. HSC-T6 cells were seeded on the 6-well plates for 24 h, scraped monolayer cells with a 200 μL pipette tip and washed off non-adherent cells by PBS, changed serum-free medium for 24 h, then treated with TGF-β1 and CX for 0, 24, and 48 h.

`COc1ccc2[nH]c(=O)oc2c1` [CX, 6-methoxybenzoxazolinone] was tested, and the “phosphorylation of ERK (p-ERK1/2, Western blot)” value [1] was “did not cause significant changes”, the “phosphorylation of PI3K (p-PI3K, Western blot)” value [1] was “did not cause significant changes” and the liver hydroxyproline content [2] was “significantly lower”. For the same compound, the “TGF-β1-induced wound closure of 24 h” value ([3]; HSC-T6, CX at a dose of 100 μM) was “significantly reduced” and the “TGF-β1-induced wound closure of 48 h” value ([3]; HSC-T6, CX at a dose of 20-100 μM) was “reduced”.
